Test: xn = mol fraction of the nth substance listed
Conditions: Fluid (supercritical or subcritical phases), Burnett expansion method

CCC [propane] + O=C=O
Conditions | mass density [kg/m3]
340.01 K, 259.67 kPa, x2 = 0.5158 | 4.1062
340.01 K, 318.3 kPa, x2 = 0.8017 | 5.0202
340.01 K, 487.5 kPa, x2 = 0.5158 | 7.8151
340.01 K, 665.18 kPa, x2 = 0.5158 | 10.7812
340.01 K, 903.91 kPa, x2 = 0.5158 | 14.873
340.01 K, 1113.1 kPa, x2 = 0.8017 | 18.156
340.01 K, 1221.3 kPa, x2 = 0.5158 | 20.5179
340.01 K, 1638.3 kPa, x2 = 0.5158 | 28.3036
340.01 K, 2172.9 kPa, x2 = 0.5158 | 39.0436
340.01 K, 2837.3 kPa, x2 = 0.5158 | 53.8584
340.01 K, 3628.8 kPa, x2 = 0.5158 | 74.2902
340.01 K, 4509 kPa, x2 = 0.5158 | 102.472
340.01 K, 5849.8 kPa, x2 = 0.8017 | 124.787
340.02 K, 356.19 kPa, x2 = 0.5158 | 5.6647
350.01 K, 173.33 kPa, x2 = 0.8017 | 2.6389
350.01 K, 194.63 kPa, x2 = 0.5158 | 2.9748
350.01 K, 267.49 kPa, x2 = 0.5158 | 4.1042
350.01 K, 367.05 kPa, x2 = 0.5158 | 5.662
350.01 K, 502.56 kPa, x2 = 0.5158 | 7.8112
350.01 K, 616.66 kPa, x2 = 0.8017 | 9.5444
350.01 K, 686.24 kPa, x2 = 0.5158 | 10.776
350.01 K, 843.17 kPa, x2 = 0.8017 | 13.1618
350.01 K, 933.45 kPa, x2 = 0.5158 | 14.8658
350.01 K, 1149 kPa, x2 = 0.8017 | 18.1499
350.01 K, 1263 kPa, x2 = 0.5158 | 20.5077
350.01 K, 1558.6 kPa, x2 = 0.8017 | 25.0284
350.01 K, 1697.7 kPa, x2 = 0.5158 | 28.2897
350.01 K, 2101.9 kPa, x2 = 0.8017 | 34.5131
350.01 K, 2258.2 kPa, x2 = 0.5158 | 39.0243
350.01 K, 2810.8 kPa, x2 = 0.8017 | 47.5894
350.01 K, 2961.5 kPa, x2 = 0.5158 | 53.8306
350.01 K, 3716.3 kPa, x2 = 0.8017 | 65.6181
350.01 K, 3812 kPa, x2 = 0.5158 | 74.2525
350.01 K, 4782.9 kPa, x2 = 0.5158 | 102.417
350.01 K, 4838.8 kPa, x2 = 0.8017 | 90.4734
350.01 K, 5812.8 kPa, x2 = 0.5158 | 141.262
350.02 K, 238.49 kPa, x2 = 0.8017 | 3.6392
350.02 K, 327.8 kPa, x2 = 0.8017 | 5.0187
350.02 K, 450.01 kPa, x2 = 0.8017 | 6.9209
350.02 K, 6175.3 kPa, x2 = 0.8017 | 124.74
360.01 K, 200.24 kPa, x2 = 0.5158 | 2.9738
360.01 K, 275.27 kPa, x2 = 0.5158 | 4.1028
360.01 K, 377.87 kPa, x2 = 0.5158 | 5.66
360.01 K, 517.62 kPa, x2 = 0.5158 | 7.8085
360.01 K, 707.21 kPa, x2 = 0.5158 | 10.7723
360.01 K, 962.87 kPa, x2 = 0.5158 | 14.8606
360.01 K, 1184.7 kPa, x2 = 0.8017 | 18.1432
360.01 K, 1304.5 kPa, x2 = 0.5158 | 20.5005
360.01 K, 1608.9 kPa, x2 = 0.8017 | 25.0192
360.01 K, 1756.6 kPa, x2 = 0.5158 | 28.2797
360.01 K, 2173.2 kPa, x2 = 0.8017 | 34.4994
360.01 K, 2342.9 kPa, x2 = 0.5158 | 39.0102
360.01 K, 2912.6 kPa, x2 = 0.8017 | 47.5708
360.01 K, 3084.3 kPa, x2 = 0.5158 | 53.8108
360.01 K, 3992.6 kPa, x2 = 0.5158 | 74.2241
360.01 K, 5052 kPa, x2 = 0.5158 | 102.377

From the NIST ThermoML archive (doi:10.1021/je100148h)
